ChEMBL document CHEMBL1201862, “PubChem BioAssay data set” (2004)
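Cultured in 96-well plates, cells were exposed to test compound for 48 hours across five concentrations. GI50 marks 50% less growth.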 Calls of active or inactive are those of the source. Rule as the data show it: active = GI50 up to about 1.1 µM and inactive = higher.

Columns and labels:
Experiment in all cases: NCI-60 cell line screen, 48 h
NCI-H23 = system: NCI-H23
BT-549 = system: BT-549
UACC-62 = system: UACC-62
SNB-75 = system: SNB-75
NCI-H460 = system: NCI-H460
RPMI-8226 = system: RPMI-8226
CCRF-CEM = system: CCRF-CEM
RXF 393 = system: RXF 393
UACC-257 = system: UACC-257
LOX IMVI = system: LOX IMVI
SW-620 = system: SW-620
CAKI-1 = system: CAKI-1
SK-MEL-5 = system: SK-MEL-5
NCI-H522 = system: NCI-H522
OVCAR-5 = system: OVCAR-5
SN12C = system: SN12C
Hs-578T = system: Hs-578T
COLO 205 = system: COLO 205
A549 = system: A549
HL-60 = system: HL-60
NCI-H226 = system: NCI-H226
SF-295 = system: SF-295
SK-MEL-28 = system: SK-MEL-28
K562 = system: K562
M14 = system: M14
MDA-MB-231 = system: MDA-MB-231
Malme-3M = system: Malme-3M
SK-OV-3 = system: SK-OV-3
OVCAR-4 = system: OVCAR-4
EKVX = system: EKVX
NCI/ADR-RES = system: NCI/ADR-RES
TK-10 = system: TK-10
SF-539 = system: SF-539
DU-145 = system: DU-145
IGROV-1 = system: IGROV-1
SF-268 = system: SF-268
KM12 = system: KM12
U-251 = system: U-251
SK-MEL-2 = system: SK-MEL-2
ACHN = system: ACHN
HCC 2998 = system: HCC 2998
MOLT-4 = system: MOLT-4
OVCAR-8 = system: OVCAR-8
HT-29 = system: HT-29
PC-3 = system: PC-3
SNB-19 = system: SNB-19
T47D = system: T47D
HCT-116 = system: HCT-116
HOP-62 = system: HOP-62
UO-31 = system: UO-31
786-0 = system: 786-0
HCT-15 = system: HCT-15
MDA-N = system: MDA-N
MCF7 = system: MCF7
SR = system: SR
OVCAR-3 = system: OVCAR-3
A498 = system: A498
HOP-92 = system: HOP-92

Measured: GI50

O=C1CCc2cc3c(cc21)C(C(=O)O)CC3 (centres undefined)
> 100 µM: HCT-15
inactive: NCI-H23 > 100 µM | BT-549 > 100 µM | UACC-62 > 100 µM | SNB-75 87.5 µM | NCI-H460 > 100 µM | RPMI-8226 > 100 µM | CCRF-CEM > 100 µM | RXF 393 30.8 µM | UACC-257 > 100 µM | LOX IMVI > 100 µM | SW-620 > 100 µM | CAKI-1 > 100 µM | SK-MEL-5 > 100 µM | NCI-H522 > 100 µM | OVCAR-5 > 100 µM | SN12C > 100 µM | Hs-578T > 100 µM | COLO 205 > 100 µM | A549 > 100 µM | HL-60 > 100 µM | NCI-H226 > 100 µM | SF-295 > 100 µM | SK-MEL-28 > 100 µM | K562 > 100 µM | M14 > 100 µM | MDA-MB-231 > 100 µM | Malme-3M > 100 µM | SK-OV-3 > 100 µM | OVCAR-4 > 100 µM | EKVX > 100 µM | NCI/ADR-RES > 100 µM | TK-10 > 100 µM | SF-539 > 100 µM | DU-145 > 100 µM | IGROV-1 > 100 µM | SF-268 > 100 µM | KM12 > 100 µM | U-251 > 100 µM | SK-MEL-2 > 100 µM | ACHN > 100 µM | HCC 2998 > 100 µM | MOLT-4 > 100 µM | OVCAR-8 > 100 µM | HT-29 > 100 µM | PC-3 > 100 µM | SNB-19 > 100 µM | T47D > 100 µM | HCT-116 > 100 µM | HOP-62 > 100 µM | UO-31 > 100 µM | 786-0 > 100 µM | MDA-N > 100 µM | MCF7 > 100 µM | SR > 100 µM

CCCCOc1ccc(S(=O)(=O)N/C(N)=N/c2ccc(Cl)cc2)cc1
inactive: NCI-H23 15.7 µM | BT-549 17.8 µM | UACC-62 14.1 µM | SNB-75 17.9 µM | NCI-H460 17.1 µM | RPMI-8226 17.2 µM | RXF 393 16.1 µM | UACC-257 14.1 µM | LOX IMVI 17.3 µM | SW-620 15.5 µM | SK-MEL-5 18.9 µM | NCI-H522 10.5 µM | OVCAR-5 17.7 µM | SN12C 14.9 µM | Hs-578T 20.1 µM | COLO 205 25.2 µM | A549 19.5 µM | NCI-H226 19.9 µM | OVCAR-3 14.9 µM | SF-295 18.3 µM | SK-MEL-28 16.7 µM | K562 15 µM | M14 18.7 µM | A498 12.1 µM | MDA-MB-231 15.6 µM | Malme-3M 14.6 µM | SK-OV-3 19.1 µM | OVCAR-4 10.2 µM | EKVX 10.3 µM | NCI/ADR-RES 16 µM | TK-10 14.9 µM | SF-539 20.9 µM | DU-145 17.4 µM | HOP-92 10.8 µM | IGROV-1 14.7 µM | SF-268 14.3 µM | KM12 17.9 µM | U-251 14.8 µM | SK-MEL-2 17.1 µM | ACHN 14.6 µM | MOLT-4 11.2 µM | OVCAR-8 16.1 µM | HT-29 18.3 µM | PC-3 17.3 µM | SNB-19 16.9 µM | T47D 10.7 µM | HCT-116 15.2 µM | HOP-62 20.2 µM | UO-31 14.8 µM | 786-0 14.7 µM | MDA-N 16.2 µM | MCF7 12.4 µM | SR 3.27 µM
14 µM: HCT-15
